The source of these data is patent US20230173083A1, “ALBUMIN-BINDING PRODRUG FOR PREVENTING OR TREATING CANCER AND PHARMACEUTICAL COMPOSITION INCLUDING THE SAME” (KOREA INSTITUTE OF SCIENCE AND TECHNOLOGY, priority 2021, published 2023).

No end group written: not given here. DOX = doxorubicin

One data set can be described thus: FIG. 16. From the text: Table printed on a drawing sheet, FIG. 16
First reader's note: The table stands beside a plasma concentration (%) versus time plot; the AUC cells hold the value ± its error and no AUC unit is printed.

The subject of data set [1] is breast cancer cells (MDA-MB-231). Briefly: Cytotoxicity (CCK-8) in breast cancer cells. Conditions: MDA-MB231 cells, 48 h. It counts as cell-based. The protocol: (§1) An in vitro cell experiment was conducted using breast cancer cells (MDA-MB-231) and rat cardiomyocytes (H9C2) to determine the cancer cell-specific cytotoxicity of the albumin-prodrug conjugate (Al-ProD+HSA). Specifically, cells were cultured and maintained in Dulbecco’s modified Eagle’s medium (DMEM) supplemented with 10% fetal bovine serum (FBS) and 1% penicillin/streptomycin in a humid atmosphere at 5% CO2 and 95% air and at 37° C. […]
(§2) Cancer cells (breast cancer cells (MDA-MB-231)) or normal cells (H9C2) were seeded at a density of 2×10^4/well in 96-well cell culture plates. […] Then, each well was treated with […] of CCK solution, followed by incubation for 30 min. The absorbance of each 96-well plate was analyzed using a microplate reader (VERSAmax™, Molecular Devices Corp., Sunnyvale, CA) at 450 nm.

For data set [2], the system named is rat cardiomyocytes (H9C2). Briefly: Cytotoxicity (CCK-8) in normal cells. In kind it is cell-based. The settings on record: 48 h. The protocol:
as §1, §2

Data set [3] concerns rat cardiomyocytes (H9C2). The experiment in a line: Intracellular behavior of DOX by CLSM in normal cells. It counts as cell-based. The settings on record: H9C2, 2 µM, 48 h. The protocol: (§3) 2×10^4 cancer cells (breast cancer cells (MDA-MB-231)) and normal cells (H9C2) were seeded in cell culture plates for confocal microscopy. As a control, MDA-MB-231 cells were treated and incubated with Cat-B-inhibitory siRNA for 24 h to inhibit the expression of cathepsin B (“MDA-MB-231 (+Cat-B inhibitor)”). […] Then, cells were washed with Dulbecco’s phosphate buffered saline (DPBS) to remove residual drug. Cells were treated with a cell fixative for 15 min and nuclei were stained blue by treatment with a DAPI solution for 10 min.

Data set [4] concerns MDA-MB-231 cancer tissues. Briefly: Tumor accumulation by NIRF imaging and CLSM in cancer animal models. It counts as in vivo, BALB/c nude mice. The protocol: (§4) All animal experiments were conducted in accordance with the guidelines approved by the Institutional Animal Care and Use Committee of Korea Institute of Science and Technology (KIST). BALB/c nude mice (5.5 weeks old, 20-25 g, male) purchased from Nara Bio INC (Gyeonggi-do, Korea) were used as animal models. 1×10^7 MDA-MB-231 cells were inoculated into the left thigh of each of the mice (n=6) to construct establish a cancer animal model. 5 weeks after inoculation, experiments were conducted when cancer volumes were 250-300 mm^3.
(§5) After administration of the drugs, noninvasive near-infrared fluorescence (NIRF) imaging data were obtained using an in vivo fluorescence imaging system (IVIS Luminar III) to assess the in vivo tumor accumulation of the prodrug (Al-ProD). The areas under the curves of the time-concentration curves (AUCs) corresponding to the near-infrared data were calculated using Origin 2020 software.
Animal models were sacrificed 12 h after injection of the drugs and organs (liver, lung, spleen, kidney, and heart) and cancer tissues were excised therefrom. The amounts of the drugs remaining in the major organs and cancer tissues were calculated via fluorescence imaging using IVIS Luminar III. The fluorescence intensities were quantified using the Living Image software (PerkinElmer, USA) and plotted.
The organs and cancer tissues excised from the animal models were sliced into 10 µm thick sections and treated with DAPI solution for 10 min to stain the cell nuclei blue. The fluorescence of DOX or DAPI from the sections was observed using a confocal laser scanning microscope (CLSM).
(§6) Significance was indicated by *P < 0.05, **P < 0.01, ***P < 0.001.

Data set [5] relates to breast cancer cells (MDA-MB-231). Briefly: Intracellular behavior of DOX by CLSM in breast cancer cells. It counts as cell-based. Conditions: MDA-MB-231, 2 µM, 48 h. The protocol: as §3
Data set [6] can be described thus: Toxicity (body weight, organ histology) in cancer animal models. In kind it is in vivo, BALB/c nude mice. The protocol:
(§7) Specifically, all animal experiments were conducted in accordance with the guidelines approved by the Institutional Animal Care and Use Committee of Korea Institute of Science and Technology (KIST). BALB/c nude mice (5.5 weeks old, 20-25 g, male) purchased from Nara Bio INC (Gyeonggi-do, Korea) were used as animal models. 1×10^7 MDA-MB-231 cells were inoculated into the left thigh of each of the mice (n=6) to construct establish a cancer animal model. 5 weeks after inoculation, experiments were conducted when cancer volumes were 250-300 mm^3.
(§8) Changes in body weight and cancer tissue volume of each group were measured and survivals were analyzed every two days from immediately after injection (day 0). The cancer tissue volume (V; mm^3) was calculated as 0.53 × largest diameter × (smallest diameter)^2. After 20 days, each group was euthanized. Major organs (liver, lung, spleen, kidney, and heart) and cancer tissues were excised and sliced into 10 µm thick sections for histological assays.
(§9) Specifically, the tissues were fixed with 10% formalin, embedded in paraffin, and sectioned to a thickness of 10 µm. The tissue sections were stained with H&E, terminal deoxynucleotidyl transferase dUTP nick-end labeling (TUNEL), and 4,6-diamidino-2-phenylindole (DAPI, Sigma-Aldrich). Structural changes and toxicities in the tissue sections were evaluated using a ZEISS light microscope or fluorescence microscope.
as §6

Data set [7] deals with MDA-MB-231 cancer tissues. Briefly: Anticancer efficacy in MDA-MB-231 cancer animal models. The settings on record: for survival / cancer volume: equimolar to 3 mg/kg doxorubicin, tail vein; for cancer volume: FIG. 21, day not given. In kind it is in vivo, BALB/c nude mice. The protocol:
as §7, §8, §9, §6

For the next data set, the target named is HSA (Homo sapiens, UniProt P02768). Briefly: Formation of albumin-prodrug conjugate with HSA (SDS-PAGE, MALDI-TOF, RP-HPLC). It counts as binding. The settings on record: for formation of conjugate with HSA (SDS-PAGE band shift to 50-75 kDa): 1% HSA in PBS. The protocol:
(§10) To this end, a PBS solution (1 ml) containing 1% albumin (HSA, MSA or BSA) or 1% blocked albumin (blocked HSA, MSA or BSA) was added to 1 mg of the prodrug (Al-ProD) synthesized in Example 1 and incubated at room temperature for various times (0 h, 5 min, and 1 h). After completion of the incubation, samples were analyzed via SDS-PAGE and MALDI-TOF mass spectrometry.
(§11) τ-maleimido butyric acid was added to 1% albumin (HSA, MSA or BSA) for 1 h to block the thiol group of the albumin. In the “Blocking” row in the table of FIG. 5, the plus signs (+) represent the use of blocked albumin.

The target of the next data set is BSA (Bos taurus, UniProt P02769). Briefly: Formation of albumin-prodrug conjugate with BSA (SDS-PAGE). It counts as binding, bovine. Conditions: 1 h; for formation of conjugate with BSA (SDS-PAGE band shift to 50-75 kDa): 1% BSA in PBS, room temperature. The protocol:
as §10, §11

The next data set deals with MSA (Mus musculus, UniProt P07724). The experiment in a line: Formation of albumin-prodrug conjugate with MSA (SDS-PAGE). It counts as binding. Conditions: 1 h; for formation of conjugate with MSA (SDS-PAGE band shift to 50-75 kDa): 1% MSA in PBS, room temperature. The protocol: as §10, §11
Data set [8] can be described thus: Pharmacokinetics after intravenous administration to cancer animal models. In kind it is in vivo, BALB/c nude mice. The protocol: as §4, §5, §6
Where [9] appears, read: equimolar to 3 mg/kg doxorubicin, tail vein.

MSA, sequence (P07724 25-608): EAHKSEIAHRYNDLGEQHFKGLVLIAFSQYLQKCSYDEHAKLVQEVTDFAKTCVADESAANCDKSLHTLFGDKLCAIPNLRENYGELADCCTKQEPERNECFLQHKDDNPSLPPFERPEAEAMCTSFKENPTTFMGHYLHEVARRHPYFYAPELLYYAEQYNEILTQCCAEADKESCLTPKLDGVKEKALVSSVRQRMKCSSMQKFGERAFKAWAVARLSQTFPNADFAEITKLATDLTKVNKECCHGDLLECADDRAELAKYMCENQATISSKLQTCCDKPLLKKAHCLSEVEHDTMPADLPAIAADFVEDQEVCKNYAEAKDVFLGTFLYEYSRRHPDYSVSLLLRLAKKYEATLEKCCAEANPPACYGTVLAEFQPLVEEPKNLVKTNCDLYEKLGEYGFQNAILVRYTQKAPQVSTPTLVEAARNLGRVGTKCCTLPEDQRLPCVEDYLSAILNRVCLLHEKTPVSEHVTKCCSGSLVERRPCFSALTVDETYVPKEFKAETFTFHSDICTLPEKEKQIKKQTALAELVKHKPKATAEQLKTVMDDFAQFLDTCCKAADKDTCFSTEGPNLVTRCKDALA
BSA, sequence (P02769 25-607): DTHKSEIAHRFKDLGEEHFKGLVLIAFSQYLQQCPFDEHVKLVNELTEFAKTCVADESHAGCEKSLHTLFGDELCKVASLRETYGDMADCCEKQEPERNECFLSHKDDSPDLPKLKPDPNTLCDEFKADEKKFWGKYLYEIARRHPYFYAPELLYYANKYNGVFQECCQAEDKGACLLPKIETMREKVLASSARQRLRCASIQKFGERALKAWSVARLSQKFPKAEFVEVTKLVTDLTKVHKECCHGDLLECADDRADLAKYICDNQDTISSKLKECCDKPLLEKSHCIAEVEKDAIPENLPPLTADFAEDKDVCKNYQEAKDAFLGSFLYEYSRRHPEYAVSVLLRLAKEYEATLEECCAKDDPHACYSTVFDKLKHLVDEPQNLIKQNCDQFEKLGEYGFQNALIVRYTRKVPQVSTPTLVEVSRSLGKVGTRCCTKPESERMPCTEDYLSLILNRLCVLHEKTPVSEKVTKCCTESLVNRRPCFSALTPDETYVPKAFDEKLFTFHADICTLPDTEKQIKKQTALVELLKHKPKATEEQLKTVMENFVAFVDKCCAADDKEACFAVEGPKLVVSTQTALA

`COc1cccc2c1C(=O)c1c(O)c3c(c(O)c1C2=O)C[C@@](O)(C(=O)CO)C[C@@H]3O[C@H]1C[C@H](N)[C@H](O)[C@H](C)O1` [Free DOX]: the “T1/2” value in “FIG. 16” turned out to be 0.25 h.

In the case of `COc1cccc2c1C(=O)c1c(O)c3c(c(O)c1C2=O)C[C@@](O)(C(=O)CO)C[C@@H]3O[C@H]1C[C@H](N)[C@H](O)[C@H](C)O1` [free DOX, doxorubicin, reference compound], the cytotoxicity entry in data set [1] and in [2] was “significant cytotoxicities” each time. In addition, the “intracellular location of DOX fluorescence” value was “penetrated the nuclei of both cancer cells and normal cells” in [3]; “penetrated the nuclei of both cancer cells and normal cells” in [5]. Further, the “DOX in excised cancer tissue sections (CLSM)” value in [4] (mouse, in vivo) is on record as “a very small quantity”. The “H&E staining of normal tissues (heart, lung, liver, kidney, and spleen)” value in data set [6] (mouse, in vivo) was “significant structural abnormalities were observed in all tissues”. The “day on which more than half of the animals had died” value in [7] (death from systemic toxicity) turned out to be 15 days. In addition, the survival in data set [7] is on record as ≤ 18 days. This compound showed a cancer volume in data set [7] of 580.25 ± 139.92 mm^3.

As to “FRRG(SEQ ID NO: 1)-DOX (FRRG-{DOX}) [reference compound]”, the “formation of conjugate with HSA (SDS-PAGE band shift to 50-75 kDa)” value with HSA (room temperature, 1 h) was “did not form conjugates with any albumin”. For the same compound, the “formation of conjugate with BSA (SDS-PAGE band shift to 50-75 kDa)” value with BSA is listed as “did not form conjugates with any albumin”. The “formation of conjugate with MSA (SDS-PAGE band shift to 50-75 kDa)” value with MSA is on record as “did not form conjugates with any albumin”.

Turning to `COc1cccc2c1C(=O)c1c(O)c3c(c(O)c1C2=O)CC(O)(C(=O)CO)CC3OC1CC(NC(=O)CNC(=O)C(CCCNC(=N)N)NC(=O)C(CCCNC(=N)N)NC(=O)C(Cc2ccccc2)NC(=O)CCOCCOCCNC(=O)CCN2C(=O)C=CC2=O)C(O)C(C)O1` (stereo not drawn) [Al-ProD], the “formation of conjugate with HSA (SDS-PAGE band shift to 50-75 kDa)” value at HSA (room temperature, 1 h) is recorded as “formed a conjugate with each albumin”. The “time to completion of conjugate formation with HSA” value at HSA (RP-HPLC, room temperature) was ≤ 5 min. For the same compound, on HSA (RP-HPLC, up to 60 min), the “conjugate formation with thiol-blocked HSA” value is reported as “not formed for 60 min”. Also, at HSA (thiol group of albumin blocked, 1 h), the “formation of conjugate with blocked HSA (SDS-PAGE)” value is “failed to form a conjugate with the blocked albumin”. In addition, at BSA, the “formation of conjugate with BSA (SDS-PAGE band shift to 50-75 kDa)” value was “formed a conjugate with each albumin”. The “formation of conjugate with blocked BSA (SDS-PAGE)” value at BSA (thiol group of albumin blocked) is listed as “failed to form a conjugate with the blocked albumin”. Moreover, the “formation of conjugate with MSA (SDS-PAGE band shift to 50-75 kDa)” value on MSA is “formed a conjugate with each albumin”. In addition, the “formation of conjugate with blocked MSA (SDS-PAGE)” value on MSA (thiol group of albumin blocked) is recorded as “failed to form a conjugate with the blocked albumin”. Besides, the “accumulation / retention in cancer tissues (NIRF imaging)” value in data set [4] (0-72 h) is given as “a considerable quantity of DOX was retained in cancer tissues even after 72 h”. In addition, the “fluorescence from cancer tissues relative to free DOX group (NIRF in vivo)” value in data set [4] (0-72 h after intravenous administration) is 3.33-4.08 fold. Further, in [4] (DAPI-stained sections), the “DOX in excised cancer tissue sections (CLSM)” value is on record as “strong DOX fluorescence from cancer tissues”. In data set [4] (ex vivo, 12 h after intravenous administration), the “DOX fluorescence from excised cancer tissues relative to free DOX group” value is 3.41-4.92 fold. The “extension of in vivo half-life” value in [8] (by binding to albumin in vivo) is reported as “at least 3 times”. In [8] (setting [9]), the “time remained in vivo” value was 50 to 150 h. Also, the half-life (commonly the time needed for the level to fall by half in the phase considered) in data set [8] (male, BALB/c nude, mouse, in vivo, 3 mg/kg, read-out: half-life (T½ (h))) was ≥ 3 h. In addition, in data set [8] (vs free DOX), the “extension of in vivo residence time compared to the simple anticancer drug” value is recorded as “at least 12 times”. Moreover, in data set [8] (vs free DOX 3 mg/kg), the “increase of area under the curve (AUC) compared to free DOX” value turned out to be 7 fold. In addition, the “H&E staining of normal tissues (heart, lung, liver, kidney, and spleen)” value in data set [6] (day 20) was “no significant damage”. In addition, the “change in body weight” value in [6] (setting [9]) is “no significant changes”. For the same compound, the “T1/2” value in the data set “FIG. 16” is 3.1 h. Moreover, the “H&E and TUNEL staining of cancer tissues” value in [7] (day 20) was “induced significant damage to and apoptosis of cancer tissues”. Besides, in [7], the survival result is “over 25 days” and the cancer volume is given as 347.42 ± 25.9 mm^3.
